Reference: EP4311545A1, “COMPOUNDS USEFUL FOR THE POST-STING TREATMENT FROM A CNIDARIAN ORGANISM” (Isdin, S. A., priority 2022, dated 2024)

Test system: P. noctiluca
Test: Tentacle Skin Blood Agarose Assay (TSBAA): venom load after natural stimulation of nematocyst discharge
Assay type: cell-based
Conditions: for discharge of nematocysts: summary of the results of Examples 1 and 2
Protocol: Example 2: Natural stimulation of nematocyst discharge. Tentacle Skin Blood Agarose Assay (TSBAA).
Briefly, an agarose gel preparation incorporating sheep red blood cells (SRBCs) (Thermo Fisher Scientific) was used covered by a thin tissue of pig intestine to simulate the effect of the human skin barrier.
A solution of 4% low melting point agarose (INVITROGEN ™ LMP Agarose) in phosphate buffered saline (PBS) (SIGMA) was prepared and cooled to room temperature for a few minutes. The SRBCs were centrifuged and resuspended in PBS until a final concentration of 2% was obtained. Equal volumes of both preparations were mixed and poured onto a glass surface with a mold (18x7.5 cm) and allowed to cool to room temperature. Once the agarose with SRBCs was set, rectangles were cut and placed on slides and kept at 4 °C in a humidification chamber (maximum 72 hours until use).
Pig small intestine tissue was washed in a 50 mM saline solution and then cut in rectangular sections. […] The next day, the sections were stretched on a glass surface and allowed to dry for a few minutes in the open air. The pretreated sections of the pig small intestine were placed on the SRBC agarose rectangles
Cutting tentacles of the same size is a complicated process due to the contraction and expansion of the tentacles after their manipulation. In order to control the sting area, we design plastic molds obtained through a 3D printer.
Tentacle pieces of approximately 3 cm long were incubated on reductor or inhibitory solutions (Method 3) for 5 minutes. Consecutively, the agarose rectangles were stung by a sting diameter of 57,35 mm^2 for 1 minute. A weight of 0,66 g was applied to ensure the contact between the tentacle and the skin. After the sting process, the plastic molds and the intestine sections were removed and the SRBC's agarose rectangles were stored in the humidification chamber at room temperature. After a period of 22 hours, images of the hemolytic areas were obtained with a camera. Hemolytic areas were calculated using the Fiji version of ImageJ software (J. Schindelin et al., Fiji: an open-source platform for biological-image analysis. Nature methods, 2012, vol. 9, pp. 676-682). Table 2. Inhibitory efficacy on the venom load to P. noctiluca.

Structure (SMILES) | discharge of nematocysts | Venom load - Hemolytic area (%) (tentacles incubated 5 minutes in solution, sting 1 minute on SRBC agarose covered with pig intestine, read after 22 hours) | % Inhibitory ({}) [%]
CC(C)(C)C1CCC(O)CC1 (stereo not shown) [4-tert-butyl cyclohexanol] | significantly reduces |  | 
CC(O)CCO (stereo not shown) [100% Butylene glycol, Butylene glycol] |  | 26.54 ± 19.66 | 56.33
O=C(CO)c1ccccc1 [HAP, hydroxy acetophenone] | significantly reduces |  | 
